Reference: paper PMC5761851, “Application of a phenotypic drug discovery strategy to identify biological and chemical starting points for inhibition of TSLP production in lung epithelial cells” (PLoS ONE, 2018)
Where two headings read alike, the source gives them in different places.

How the values were obtained:
[1] = system: 104 binding assays and 41 cell based and enzyme assays; experiment: BioPrint general selectivity panel; conditions: 1 μM
Method: (§1) General selectivity profiling was performed at Eurofins Pharma Discovery Services using the BioPrint® panel and reference database. The panel included 104 binding assays (non-peptide, peptide and nuclear receptors, ion channels and amine transporters) and 41 cell based and enzyme assays (including 10 kinases, 9 proteases and 5 phosphodiesterases) (S4 Table). More than 70% were human targets. Compound 4 was tested at a concentration of 1 μM in duplicate (10 μM for P-gp and CYP enzymes). The resulting bioactivity fingerprint was compared with a database of >2,500 BioPrint marketed drugs and reference compounds. IC50 values for selected activities were further characterized at 8 concentrations in duplicate.

MT3 (QR2) = target: T1, MT3 (QR2) (Mesocricetus auratus, UniProt A0ABM2YAB8); experiment: BioPrint panel: MT3; format: binding
T1 construct: Eurofins Pharma Discovery Services (contract assay service)
T1 sequence (A0ABM2YAB8 1-231): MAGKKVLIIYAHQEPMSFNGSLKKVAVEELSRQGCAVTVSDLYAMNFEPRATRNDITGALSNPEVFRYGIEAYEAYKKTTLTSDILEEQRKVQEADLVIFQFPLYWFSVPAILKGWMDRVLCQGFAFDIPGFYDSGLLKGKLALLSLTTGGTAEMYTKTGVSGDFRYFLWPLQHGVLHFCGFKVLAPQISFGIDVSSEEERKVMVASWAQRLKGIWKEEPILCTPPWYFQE
Method: as §1

A1 = target: T2, A1 (Homo sapiens, UniProt P30542); experiment: BioPrint panel: A1 (h) (agonist); format: binding; conditions: 1 micromolar, read-out: percentage of inhibition of activity
T2 construct: purchased Eurofins Pharma Discovery Services (KinaseProfiler; Cerep BioPrint panel)
Excerpt: (§2) Supplement pone.0189247.s004.xlsx, sheet "Bioprint Selectivity Panel" | column: %

BB3 = target: T3, BB3 (Homo sapiens, UniProt P32247); experiment: BioPrint panel: BB3 (h) (agonist); format: binding; conditions: 1 micromolar, read-out: percentage of inhibition of activity
T3 construct: purchased Eurofins Pharma Discovery Services (KinaseProfiler; Cerep BioPrint panel)
Excerpt: as §2

D1 = target: T4, D1 (Homo sapiens, UniProt P21728); experiment: BioPrint panel: D1 (h) (antagonist); format: binding; conditions: 1 micromolar, read-out: percentage of inhibition of activity
T4 construct: purchased Eurofins Pharma Discovery Services (KinaseProfiler; Cerep BioPrint panel)
Excerpt: as §2

glucagon = target: T5, glucagon (Homo sapiens, UniProt P47871); experiment: BioPrint panel: glucagon (h) (agonist); format: binding; conditions: 1 micromolar, read-out: percentage of inhibition of activity
T5 construct: purchased Eurofins Pharma Discovery Services (KinaseProfiler; Cerep BioPrint panel)
Excerpt: as §2

NMDA = experiment: BioPrint panel: NMDA (antagonist); format: binding; conditions: 1 micromolar
Excerpt: as §2

H3 = target: T6, H3 (Homo sapiens, UniProt Q9Y5N1); experiment: BioPrint panel: H3 (h) (agonist); format: binding; conditions: 1 micromolar, read-out: percentage of inhibition of activity
T6 construct: purchased Eurofins Pharma Discovery Services (KinaseProfiler; Cerep BioPrint panel)
Excerpt: as §2

H4 = target: T7, H4 (Homo sapiens, UniProt Q9H3N8); experiment: BioPrint panel: H4 (h) (agonist); format: binding; conditions: 1 micromolar, read-out: percentage of inhibition of activity
T7 construct: purchased Eurofins Pharma Discovery Services (KinaseProfiler; Cerep BioPrint panel)
Excerpt: as §2

M3 = target: T8, M3 (Homo sapiens, UniProt P20309); experiment: BioPrint panel: M3 (h) (antagonist); format: binding; conditions: 1 micromolar, read-out: percentage of inhibition of activity
T8 construct: purchased Eurofins Pharma Discovery Services (KinaseProfiler; Cerep BioPrint panel)
Excerpt: as §2

PAF = target: T9, PAF (Homo sapiens, UniProt P25105); experiment: BioPrint panel: PAF (h) (agonist); format: binding; conditions: 1 micromolar, read-out: percentage of inhibition of activity
T9 construct: purchased Eurofins Pharma Discovery Services (KinaseProfiler; Cerep BioPrint panel)
Excerpt: as §2

IP (PGI2) = target: T10, IP (PGI2) (Homo sapiens, UniProt P43119); experiment: BioPrint panel: IP (PGI2) (h) (agonist); format: binding; conditions: 1 micromolar, read-out: percentage of inhibition of activity
T10 construct: purchased Eurofins Pharma Discovery Services (KinaseProfiler; Cerep BioPrint panel)
Excerpt: as §2

5-HT1D = target: T11, 5-HT1D (Rattus norvegicus, UniProt P28565); experiment: BioPrint panel: 5-HT1D (agonist); format: binding; conditions: 1 micromolar, read-out: percentage of inhibition of activity
T11 construct: purchased Eurofins Pharma Discovery Services (KinaseProfiler; Cerep BioPrint panel)
Excerpt: as §2

5-HT2A = target: T12, 5-HT2A (Homo sapiens, UniProt P28223); experiment: BioPrint panel: 5-HT2A (h) (agonist); format: binding; conditions: 1 micromolar, read-out: percentage of inhibition of activity
T12 construct: purchased Eurofins Pharma Discovery Services (KinaseProfiler; Cerep BioPrint panel)
Excerpt: as §2

5-HT6 = target: T13, 5-HT6 (Homo sapiens, UniProt P50406); experiment: BioPrint panel: 5-HT6 (h) (agonist); format: binding; conditions: 1 micromolar, read-out: percentage of inhibition of activity
T13 construct: purchased Eurofins Pharma Discovery Services (KinaseProfiler; Cerep BioPrint panel)
Excerpt: as §2

sigma (non-selective) = experiment: BioPrint panel: sigma (non-selective) (h) (agonist); format: binding, human; conditions: 1 micromolar
Excerpt: as §2

V1a = target: T14, V1a (Homo sapiens, UniProt P37288); experiment: BioPrint panel: V1a (h) (agonist); format: binding; conditions: 1 micromolar, read-out: percentage of inhibition of activity
T14 construct: purchased Eurofins Pharma Discovery Services (KinaseProfiler; Cerep BioPrint panel)
Excerpt: as §2

[2] = system: Ca2+ channel (L, diltiazem site); experiment: BioPrint panel: Ca2+ channel (L, diltiazem site)(antagonist); format: binding; conditions: 1 micromolar
Excerpt: as §2

Cl- channel (GABA-gated) = experiment: BioPrint panel: Cl- channel (GABA-gated) (antagonist); format: binding; conditions: 1 micromolar
Excerpt: as §2

[3] = target: T15, norepinephrine transporter (Homo sapiens, UniProt P23975); experiment: BioPrint panel: norepinephrine transporter (h) (antagonist); format: binding; conditions: 1 micromolar, read-out: percentage of inhibition of activity
T15 construct: purchased Eurofins Pharma Discovery Services (KinaseProfiler; Cerep BioPrint panel)
Excerpt: as §2

GABA transporter = experiment: BioPrint panel: GABA transporter (antagonist); format: binding; conditions: 1 micromolar
Excerpt: as §2

ZAP-70 = target: T16, ZAP-70 (Homo sapiens, UniProt P43403); experiment: BioPrint panel: ZAP70 kinase (h); format: biochemical; conditions: 1 micromolar, read-out: percentage of inhibition of activity
T16 construct: purchased Eurofins Pharma Discovery Services (KinaseProfiler; Cerep BioPrint panel)
T16 sequence (P43403 1-619): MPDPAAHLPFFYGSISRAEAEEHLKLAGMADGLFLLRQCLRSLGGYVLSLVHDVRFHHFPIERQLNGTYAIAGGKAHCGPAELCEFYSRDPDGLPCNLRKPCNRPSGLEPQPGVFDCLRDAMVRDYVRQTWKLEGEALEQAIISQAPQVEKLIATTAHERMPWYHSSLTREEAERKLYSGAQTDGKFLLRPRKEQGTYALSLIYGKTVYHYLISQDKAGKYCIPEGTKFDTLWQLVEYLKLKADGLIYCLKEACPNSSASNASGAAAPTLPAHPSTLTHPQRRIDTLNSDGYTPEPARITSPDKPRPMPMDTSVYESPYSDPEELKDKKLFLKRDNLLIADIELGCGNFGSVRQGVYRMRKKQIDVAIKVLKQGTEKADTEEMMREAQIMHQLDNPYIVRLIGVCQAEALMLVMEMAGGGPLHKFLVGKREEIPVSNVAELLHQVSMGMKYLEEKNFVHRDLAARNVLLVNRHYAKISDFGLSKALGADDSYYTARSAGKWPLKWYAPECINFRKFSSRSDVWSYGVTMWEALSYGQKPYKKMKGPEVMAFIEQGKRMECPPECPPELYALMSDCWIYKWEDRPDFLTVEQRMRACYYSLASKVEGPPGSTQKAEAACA
Excerpt: as §2

T7 sequence (Q9H3N8 whole entry): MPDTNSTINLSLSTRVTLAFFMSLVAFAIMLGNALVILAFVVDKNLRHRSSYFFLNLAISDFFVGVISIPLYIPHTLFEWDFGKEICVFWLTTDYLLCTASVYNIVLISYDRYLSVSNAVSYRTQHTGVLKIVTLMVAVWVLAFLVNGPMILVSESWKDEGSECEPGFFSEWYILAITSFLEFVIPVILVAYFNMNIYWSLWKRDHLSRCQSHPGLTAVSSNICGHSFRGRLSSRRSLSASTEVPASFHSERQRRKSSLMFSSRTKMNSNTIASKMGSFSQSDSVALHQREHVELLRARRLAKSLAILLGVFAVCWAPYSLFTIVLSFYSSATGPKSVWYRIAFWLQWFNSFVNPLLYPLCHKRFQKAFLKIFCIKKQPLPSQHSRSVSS
T4 sequence (P21728 whole entry): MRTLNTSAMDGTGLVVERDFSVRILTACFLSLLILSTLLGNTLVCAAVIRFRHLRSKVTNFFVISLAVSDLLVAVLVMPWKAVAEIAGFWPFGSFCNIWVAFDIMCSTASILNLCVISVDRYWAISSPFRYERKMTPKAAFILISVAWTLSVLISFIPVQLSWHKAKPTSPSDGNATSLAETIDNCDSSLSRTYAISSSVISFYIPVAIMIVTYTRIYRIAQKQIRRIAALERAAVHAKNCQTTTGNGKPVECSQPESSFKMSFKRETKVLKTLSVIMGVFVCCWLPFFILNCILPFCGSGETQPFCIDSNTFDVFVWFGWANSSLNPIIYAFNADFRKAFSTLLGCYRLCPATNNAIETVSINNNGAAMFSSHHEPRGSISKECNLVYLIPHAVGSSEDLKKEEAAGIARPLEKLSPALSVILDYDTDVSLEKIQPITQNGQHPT
T14 sequence (P37288 whole entry): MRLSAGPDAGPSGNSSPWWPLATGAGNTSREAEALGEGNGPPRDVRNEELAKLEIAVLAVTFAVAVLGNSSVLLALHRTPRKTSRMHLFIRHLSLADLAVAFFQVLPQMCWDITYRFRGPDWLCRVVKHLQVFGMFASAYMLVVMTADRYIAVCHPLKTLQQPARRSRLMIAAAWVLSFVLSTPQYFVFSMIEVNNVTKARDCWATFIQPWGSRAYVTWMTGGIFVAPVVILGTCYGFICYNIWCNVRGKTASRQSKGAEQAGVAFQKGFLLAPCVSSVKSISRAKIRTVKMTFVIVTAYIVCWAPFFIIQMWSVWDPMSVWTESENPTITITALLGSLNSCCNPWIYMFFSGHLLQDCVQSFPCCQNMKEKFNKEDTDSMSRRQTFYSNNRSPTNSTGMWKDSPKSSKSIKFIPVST
T8 sequence (P20309 whole entry): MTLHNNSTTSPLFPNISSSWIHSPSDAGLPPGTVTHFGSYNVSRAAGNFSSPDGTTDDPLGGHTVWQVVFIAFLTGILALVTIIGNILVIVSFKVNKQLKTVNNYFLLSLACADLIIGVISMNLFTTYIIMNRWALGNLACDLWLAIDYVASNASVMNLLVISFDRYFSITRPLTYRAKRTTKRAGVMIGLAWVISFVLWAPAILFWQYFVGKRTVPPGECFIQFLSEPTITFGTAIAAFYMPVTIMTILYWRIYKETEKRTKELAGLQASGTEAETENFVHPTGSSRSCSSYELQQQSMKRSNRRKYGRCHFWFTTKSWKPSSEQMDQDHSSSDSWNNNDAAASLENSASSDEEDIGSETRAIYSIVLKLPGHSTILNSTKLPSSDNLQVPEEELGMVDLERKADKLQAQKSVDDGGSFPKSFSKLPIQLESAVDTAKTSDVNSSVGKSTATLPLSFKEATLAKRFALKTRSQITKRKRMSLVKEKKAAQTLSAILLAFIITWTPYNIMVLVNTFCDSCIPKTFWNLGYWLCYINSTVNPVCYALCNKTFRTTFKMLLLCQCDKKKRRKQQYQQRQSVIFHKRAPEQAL
T9 sequence (P25105 whole entry): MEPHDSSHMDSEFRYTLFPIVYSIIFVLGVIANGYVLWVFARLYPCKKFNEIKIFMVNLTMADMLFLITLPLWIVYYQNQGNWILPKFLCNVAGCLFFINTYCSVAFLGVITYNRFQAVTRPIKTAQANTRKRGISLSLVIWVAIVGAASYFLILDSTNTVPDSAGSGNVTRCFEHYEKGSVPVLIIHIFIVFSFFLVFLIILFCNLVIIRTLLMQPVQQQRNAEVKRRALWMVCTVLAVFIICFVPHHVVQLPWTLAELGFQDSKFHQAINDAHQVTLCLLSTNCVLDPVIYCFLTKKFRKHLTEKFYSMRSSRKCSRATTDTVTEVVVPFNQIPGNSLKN
T12 sequence (P28223 whole entry): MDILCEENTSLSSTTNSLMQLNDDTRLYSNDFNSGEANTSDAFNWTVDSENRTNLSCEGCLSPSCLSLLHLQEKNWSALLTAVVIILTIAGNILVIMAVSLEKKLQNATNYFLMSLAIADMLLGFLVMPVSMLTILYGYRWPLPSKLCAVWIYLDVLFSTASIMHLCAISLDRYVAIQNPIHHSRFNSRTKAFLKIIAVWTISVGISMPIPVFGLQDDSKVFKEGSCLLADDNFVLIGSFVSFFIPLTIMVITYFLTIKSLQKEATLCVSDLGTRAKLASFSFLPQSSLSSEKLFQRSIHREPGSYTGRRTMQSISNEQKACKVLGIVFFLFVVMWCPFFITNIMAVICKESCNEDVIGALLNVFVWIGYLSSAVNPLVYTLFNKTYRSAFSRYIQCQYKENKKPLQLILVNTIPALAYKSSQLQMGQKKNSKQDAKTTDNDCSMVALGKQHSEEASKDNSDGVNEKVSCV
T15 sequence (P23975 whole entry): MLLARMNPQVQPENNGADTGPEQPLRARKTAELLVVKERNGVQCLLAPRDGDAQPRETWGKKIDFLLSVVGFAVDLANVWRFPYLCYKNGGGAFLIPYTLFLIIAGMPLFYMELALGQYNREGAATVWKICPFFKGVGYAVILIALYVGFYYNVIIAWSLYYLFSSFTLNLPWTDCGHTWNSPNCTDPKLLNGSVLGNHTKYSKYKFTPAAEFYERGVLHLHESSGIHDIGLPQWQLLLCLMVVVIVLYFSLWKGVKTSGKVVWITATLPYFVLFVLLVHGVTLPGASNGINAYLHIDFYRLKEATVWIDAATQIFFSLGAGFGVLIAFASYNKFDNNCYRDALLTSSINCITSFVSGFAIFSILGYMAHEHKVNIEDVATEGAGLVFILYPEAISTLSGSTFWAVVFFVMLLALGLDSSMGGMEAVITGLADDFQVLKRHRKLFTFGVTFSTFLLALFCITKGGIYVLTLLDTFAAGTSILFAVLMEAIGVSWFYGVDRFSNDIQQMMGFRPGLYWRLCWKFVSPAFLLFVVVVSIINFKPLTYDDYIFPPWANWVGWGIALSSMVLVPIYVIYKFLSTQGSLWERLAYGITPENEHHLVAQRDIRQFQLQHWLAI
T5 sequence (P47871 26-477): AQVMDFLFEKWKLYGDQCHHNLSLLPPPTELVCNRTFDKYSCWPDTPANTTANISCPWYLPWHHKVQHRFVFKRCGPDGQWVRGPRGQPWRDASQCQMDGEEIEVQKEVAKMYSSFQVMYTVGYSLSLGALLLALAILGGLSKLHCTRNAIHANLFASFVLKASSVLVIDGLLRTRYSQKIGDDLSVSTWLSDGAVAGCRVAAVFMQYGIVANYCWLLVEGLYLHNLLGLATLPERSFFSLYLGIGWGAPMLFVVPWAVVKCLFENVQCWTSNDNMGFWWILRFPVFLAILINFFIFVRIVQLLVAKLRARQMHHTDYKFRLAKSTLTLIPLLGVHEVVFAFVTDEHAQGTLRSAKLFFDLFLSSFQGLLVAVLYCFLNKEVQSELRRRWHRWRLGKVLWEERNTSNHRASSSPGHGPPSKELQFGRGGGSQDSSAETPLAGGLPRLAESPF
T13 sequence (P50406 whole entry): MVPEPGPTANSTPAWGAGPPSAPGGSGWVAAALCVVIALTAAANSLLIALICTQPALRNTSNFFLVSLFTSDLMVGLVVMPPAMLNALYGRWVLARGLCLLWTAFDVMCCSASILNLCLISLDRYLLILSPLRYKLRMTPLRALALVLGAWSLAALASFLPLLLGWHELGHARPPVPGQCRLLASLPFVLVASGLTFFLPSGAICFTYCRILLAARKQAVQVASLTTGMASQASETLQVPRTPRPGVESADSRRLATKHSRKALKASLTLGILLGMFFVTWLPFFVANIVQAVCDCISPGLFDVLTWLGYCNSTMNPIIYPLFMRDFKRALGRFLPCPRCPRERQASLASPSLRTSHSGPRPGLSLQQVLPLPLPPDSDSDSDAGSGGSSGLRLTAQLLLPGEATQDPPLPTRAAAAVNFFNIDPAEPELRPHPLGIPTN
T2 sequence (P30542 whole entry): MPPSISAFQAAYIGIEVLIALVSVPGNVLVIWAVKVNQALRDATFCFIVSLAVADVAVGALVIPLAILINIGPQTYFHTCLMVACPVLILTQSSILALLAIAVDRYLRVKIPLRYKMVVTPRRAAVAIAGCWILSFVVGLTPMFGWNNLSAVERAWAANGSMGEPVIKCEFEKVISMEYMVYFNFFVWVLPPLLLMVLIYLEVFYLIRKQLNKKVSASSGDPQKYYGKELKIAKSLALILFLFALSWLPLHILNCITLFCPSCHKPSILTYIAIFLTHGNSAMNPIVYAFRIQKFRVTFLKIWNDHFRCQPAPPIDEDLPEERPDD
T6 sequence (Q9Y5N1 whole entry): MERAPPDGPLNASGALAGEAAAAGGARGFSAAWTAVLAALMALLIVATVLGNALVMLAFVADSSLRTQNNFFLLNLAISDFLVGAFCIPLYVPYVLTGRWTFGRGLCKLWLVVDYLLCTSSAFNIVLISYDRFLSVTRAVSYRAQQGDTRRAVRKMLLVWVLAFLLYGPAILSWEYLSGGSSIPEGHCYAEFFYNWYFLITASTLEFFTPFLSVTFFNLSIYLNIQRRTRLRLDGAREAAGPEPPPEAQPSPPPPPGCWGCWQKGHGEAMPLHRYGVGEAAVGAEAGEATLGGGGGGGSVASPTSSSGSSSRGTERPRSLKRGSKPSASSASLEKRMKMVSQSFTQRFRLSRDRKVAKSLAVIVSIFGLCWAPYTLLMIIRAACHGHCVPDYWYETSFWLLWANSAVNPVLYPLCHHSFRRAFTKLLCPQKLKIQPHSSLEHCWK

SMILES: Cn1cc(-c2cccc(-c3nc(C(=O)NC4C5CC6CC4CC(O)(C6)C5)c(N)nc3N)c2)cn1 (stereo not drawn) [compound 4]
- Inhibition of 129 additional activities [1]: less than 50%
- inhibition at 1 µM (MT3 (QR2); 1 μM, read-out: inhibition of MT3): 71%
- inhibition at 1 µM (MT3 (QR2); 1 micromolar, MT3 (ML2) (agonist), read-out: percentage of inhibition of activity): 71.9%
- IC50 (MT3 (QR2); dose response, duplicate, read-out: Inhibition of indicated activity (IC50, μM): MT3 (QR2)): 0.4 µM
- inhibition at 1 µM (A1): -11.2%
- inhibition at 1 µM (BB3): -3.6%
- inhibition at 1 µM (D1): 2.3%
- inhibition at 1 µM (glucagon): -8.3%
- percentage of inhibition of activity (NMDA): -6.8%
- inhibition at 1 µM (H3): 7.4%
- inhibition at 1 µM (H4): -1.7%
- inhibition at 1 µM (M3): -0.3%
- inhibition at 1 µM (PAF): -2.1%
- inhibition at 1 µM (IP (PGI2)): -5.1%
- inhibition at 1 µM (5-HT1D): -8.1%
- inhibition at 1 µM (5-HT2A): 2.4%
- inhibition at 1 µM (5-HT6): -5.3%
- percentage of inhibition of activity (sigma (non-selective)): 5.9%
- inhibition at 1 µM (V1a): -9.3%
- percentage of inhibition of activity [2]: -22.4%
- percentage of inhibition of activity (Cl- channel (GABA-gated)): 0.5%
- inhibition at 1 µM [3]: 26.7%
- percentage of inhibition of activity (GABA transporter): 1.1%
- inhibition at 1 µM (ZAP-70): 5.5%
